This is an account of results in article PMC6934184, “Selective DNA-PKcs inhibition extends the therapeutic index of localized radiotherapy and chemotherapy” (The Journal of Clinical Investigation, 2019).

In the assay the target is T1, CLK4 (Homo sapiens, UniProt Q9HAZ1).
T1 construct: purchased Thermo Fisher Scientific (Life Technologies) SelectScreen
As to the kind of experiment: SelectScreen LanthaScreen. The class given is binding. Conditions: read-out: % displacement. In outline:
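NU5455 was profiled across the SelectScreen Broad panel of kinase activity and binding assays. Z'LYTE reactions such as CSF1R ran at apparent Km ATP, while the Adapta CAMK1 assay used ATP listed as 10. Values are given as percent.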
(In TR-FRET formats the signal depends on donor and acceptor labels being close together.)

T1 sequence (Q9HAZ1 whole entry): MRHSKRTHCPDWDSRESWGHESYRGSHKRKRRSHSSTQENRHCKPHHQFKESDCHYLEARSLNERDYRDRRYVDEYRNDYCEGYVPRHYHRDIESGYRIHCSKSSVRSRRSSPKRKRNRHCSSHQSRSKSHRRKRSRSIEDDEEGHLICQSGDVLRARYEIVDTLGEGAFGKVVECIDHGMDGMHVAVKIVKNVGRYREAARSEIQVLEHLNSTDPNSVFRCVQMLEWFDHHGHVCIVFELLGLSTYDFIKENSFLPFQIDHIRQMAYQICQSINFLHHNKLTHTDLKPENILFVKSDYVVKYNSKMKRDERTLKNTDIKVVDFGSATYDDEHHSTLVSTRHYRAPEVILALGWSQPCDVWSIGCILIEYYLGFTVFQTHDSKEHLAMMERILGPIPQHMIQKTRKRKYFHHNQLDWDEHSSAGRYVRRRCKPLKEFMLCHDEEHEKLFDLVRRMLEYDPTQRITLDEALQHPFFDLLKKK

With `CN(C(=O)CN1CCOCC1)c1ccc2sc3c(-c4cccc5c(=O)cc(N6CC7CCC(C6)O7)oc45)cccc3c2c1` [NU5455], the inhibition at 1 µM is 1.4%.
